Assays:
[1] = Characterization of lipid nanoparticles encapsulating Fluc-mRNA; assay type: physicochemical; conditions: for Particle size: LNP (YK-009/DSPC/cholesterol/DMG-PEG2000) encapsulating Fluc-mRNA transcribed using the cap analog; for PDI: LNP encapsulating Fluc-mRNA transcribed using the cap analog; for EE: encapsulation efficiency of LNP encapsulating Fluc-mRNA transcribed using the cap analog
Description: Cationic lipid YK-009 (Beijing Youcare Kechuang Pharmaceutical Technology Co., Ltd.), DSPC (AVT (Shanghai) Pharmaceutical Technology Co., Ltd.), cholesterol (AVT (Shanghai) Pharmaceutical Technology Co., Ltd.), and DMG-PEG2000 were dissolved in ethanol at a molar ratio of 49:10:39.5:1.5, and the mRNA was diluted in 50 mM citrate buffer (pH=4). The ethanol lipid solution was mixed with the Fluc-mRNA aqueous solution prepared from different cap structures at a volume ratio of 1:3 using a microfluidic device at a flow rate of 10 mL/min to prepare LNPs at a weight ratio of total lipid to mRNA of approximately 15:1. The resulting liposomes were diluted to 10-fold volume with PBS, and then ultrafiltered with a 300 KDa ultrafiltration tube to remove ethanol. The volume was then fixed to a certain volume with PBS. Finally, the LNPs were filtered through a 0.2 μm sterile filter to obtain an LNP preparation encapsulating Fluc-mRNA using YK-009/DSPC/cholesterol/DMG-PEG2000 (at a molar ratio of 49:10:39.5:1.5).
The particle size and polydispersity index (PDI) were determined by dynamic light scattering using a Malvern laser particle size analyzer. 10 μL of the liposome solution was taken, diluted to 1 mL with RNase-free deionized water, and added to a sample pool. Each sample was measured in triplicate. The measurement conditions were: a scattering angle of 90° and a temperature of 25° C. The encapsulation efficiency of LNPs was determined using the Quant-iT RiboGreen RNA Quantification Kit (Thermo Fisher Scientific, UK) according to the manufacturer's instructions.

BALB/C mice = assay: In vivo imaging of protein expressed by LNP-carrying Fluc-mRNA in mice; conditions: for Average radiation intensity: female BALB/C mice; for average radiation intensity, times that of N-7413: ratio to N-7413; for average radiation intensity, times that of YK-CAP-001: ratio to YK-CAP-001; for average radiation intensity, times that of YK-CAP-002: ratio to YK-CAP-002; for average radiation intensity, times that of compound 14: ratio to compound 14; for average radiation intensity, times that of m6A: ratio to m6A
Description: The LNP preparation containing […] of Fluc-mRNAs transcribed using the cap analogs YK-CAP-001 to 006 in the present disclosure and the cap analogs N-7413, compound 14, and m6A in the prior art was intramuscularly injected into female BALB/C mice aged 4 to 6 weeks and weighing 17 to 19 g. At specific time points after administration (6 hours, 12 hours, 24 hours, 48 hours, 96 hours, and 168 hours), the mice were intraperitoneally injected with fluorescence imaging substrate. The mice were then allowed to move freely for 5 minutes, followed by detection of the average radiation intensity (corresponding to the amount of protein expression) of the protein expressed by LNP-carrying mRNA in the mice using an IVIS Spectrum small-animal in vivo imaging system.

[2] = 6 h after intramuscular injection of LNP Fluc-mRNA
[3] = 12 h after intramuscular injection of LNP Fluc-mRNA
[4] = 24 h after intramuscular injection of LNP Fluc-mRNA
[5] = 48 h after intramuscular injection of LNP Fluc-mRNA
[6] = 96 h after intramuscular injection of LNP Fluc-mRNA
[7] = 168 h after intramuscular injection of LNP Fluc-mRNA

Compound | Particle size [1] [nm] | PDI [1] | EE [1] [%] | Average radiation intensity (BALB/C mice; [2]) [p/s/cm^2/sr] | Average radiation intensity (BALB/C mice; [3]) [p/s/cm^2/sr] | Average radiation intensity (BALB/C mice; [4]) [p/s/cm^2/sr] | Average radiation intensity (BALB/C mice; [5]) [p/s/cm^2/sr] | Average radiation intensity (BALB/C mice; [6]) [p/s/cm^2/sr] | Average radiation intensity (BALB/C mice; [7]) [p/s/cm^2/sr] | average radiation intensity, times that of N-7413 (BALB/C mice; at 6 hours) [times] | average radiation intensity, times that of YK-CAP-001 (BALB/C mice; at 6 hours) [times] | average radiation intensity, times that of YK-CAP-002 (BALB/C mice; at 6 hours) [times] | average radiation intensity, times that of compound 14 (BALB/C mice; at 6 hours) [times] | average radiation intensity, times that of m6A (BALB/C mice; at 6 hours) [times] | average radiation intensity, times that of N-7413 (BALB/C mice; at 96 hours) [times] | average radiation intensity, times that of YK-CAP-001 (BALB/C mice; at 96 hours) [times] | average radiation intensity, times that of YK-CAP-002 (BALB/C mice; at 96 hours) [times] | average radiation intensity, times that of compound 14 (BALB/C mice; at 96 hours) [times] | average radiation intensity, times that of m6A (BALB/C mice; at 96 hours) [times]
COC1C(OP(=O)([O-])OC[C@H]2O[C@@H](n3cnc4c(=O)[nH]c(N)nc43)C(O)C2O)[C@@H](COP(=O)(O)OP(=O)(O)OP(=O)(O)OC[C@]23O[C@@H]([n+]4cn(C)c5c(=O)[nH]c(N)nc54)C(O[C@H]2CC(=O)N(C)C)C3O)O[C@H]1n1cnc2c(N)ncnc21 (stereo partly shown) [YK-CAP-003] | 82.83 | 0.032 | 95.6 | 3212750 | 2454750 | 1053625 | 700200 | 57893 | 19016 | 1.2 | 1.9 | 2.2 | 1.2 | 1.8 | 0.8 | 1.3 | 2.8 | 1.0 | 1.7
COC1C(OP(=O)([O-])OC[C@H]2O[C@@H](n3cnc4c(=O)[nH]c(N)nc43)C(O)C2O)[C@@H](COP(=O)(O)OP(=O)(O)OP(=O)(O)OC[C@]23O[C@@H]([n+]4cn(C)c5c(=O)[nH]c(N)nc54)C(O[C@H]2CC(F)F)C3O)O[C@H]1n1cnc2c(N)ncnc21 (stereo partly shown) [YK-CAP-004] | 89.39 | 0.065 | 93.7 | 3856100 | 2836750 | 1159325 | 903025 | 114933 | 19785 | 1.4 | 2.2 | 2.6 | 1.5 | 2.1 | 1.7 | 2.6 | 5.5 | 2.0 | 3.4
COC1C(OP(=O)([O-])OC[C@H]2O[C@@H](n3cnc4c(=O)[nH]c(N)nc43)C(O)C2O)[C@@H](COP(=O)(O)OP(=O)(O)OP(=O)(O)OC[C@]23O[C@@H]([n+]4cn(C)c5c(=O)[nH]c(N)nc54)C(O[C@H]2CCS(C)(=O)=O)C3O)O[C@H]1n1cnc2c(N)ncnc21 (stereo partly shown) [YK-CAP-005] | 87.01 | 0.064 | 94.5 | 3171000 | 2497200 | 998650 | 834250 | 110595 | 17807 | 1.1 | 1.8 | 2.2 | 1.2 | 1.8 | 1.6 | 2.5 | 5.3 | 1.9 | 3.3
COC1C(OP(=O)([O-])OC[C@H]2O[C@@H](n3cnc4c(=O)[nH]c(N)nc43)C(O)C2O)[C@@H](COP(=O)(O)OP(=O)(O)OP(=O)(O)OC[C@]23O[C@@H]([n+]4cn(C)c5c(=O)[nH]c(N)nc54)C(O[C@H]2CCS(=O)(=O)N(C)C)C3O)O[C@H]1n1cnc2c(N)ncnc21 (stereo partly shown) [YK-CAP-006] | 96.64 | 0.029 | 96.3 | 3303900 | 2067750 | 976550 | 798075 | 75840 | 15660 | 1.2 | 1.9 | 2.3 | 1.3 | 1.8 | 1.1 | 1.7 | 3.6 | 1.3 | 2.3

— patent US12551500B2, “C6′-substituted locked nucleic acid-modified cap analog and use thereof” (Hangzhou Tianlong Pharmaceutical Co., Ltd., priority 2024, dated 2026)
